Assay results reported in patent US10308631B2, “Selective anti-cancer compounds” (NATIONAL UNIVERSITY OF SINGAPORE, priority 2015, dated 2019).

Tests used:
[1] = system: HeLa cells (LC3 puncta); assay: Immunofluorescence analysis of LC3 puncta; type: cell-based, human; settings: 2.5 μM, 6 h
Description: HeLa cells, treated with either Compound 1 (a131) at 2.5 μM or DMSO for 6 h, were fixed in ice-cold methanol and subjected to immunofluorescence analysis using antibodies against LC3 and counterstained with diamidino-2-phenylindole (DAPI) to visualize the nucleus. The Merge boxes show both LC3 and DAPI staining. The bars represent 5 μm in length.
To confirm the results of the immunoblot analysis and the lysosome-mediated autophagy activity, HeLa cervical cancer cells as cultured above were treated with Compound 1 (2.5 μM, DMSO) or DMSO as a control for 6 h. The treated cells were fixed in ice-cold methanol and subjected to immunofluorescence analysis using antibodies against LC3 and counterstained with diamidino-2-phenylindole (DAPI) to visualize the nucleus.

[2] = system: HCT-15 human colon adenocarcinoma xenografts; assay: Tumour xenograft efficacy, tumour volume; type: in vivo, mice; settings: HCT15 xenografts; PO or IP twice a day, 12 days; vs vehicle
Description: A, B: is a graphical representation of tumour volumes estimated periodically as indicated. Mice bearing established tumour xenografts using HCT15 or MDA-MB-231 cells were treated orally (PO) or intraperitoneally (IP) twice a day with the indicated doses of Compound 1 or Compound 16 for 12 or 15 days. Paclitaxel (PTX) was given intravenously at dose of 40 mg/kg, 3 times every 4 days. Error bars show ±S.D. from mean tumour volumes obtained from 6 mice. Student's t-test was performed to determine the statistical significance (*=p<0.005). C: is a bar graph showing quantification of cells (n>100 per condition) with misaligned chromosomes and multipolar mitotic-spindles. […] tumour sections treated with Compound 16 (80 mg/kg) or control vehicle for 12 days were stained with anti-β-tubulin antibodies and DAPI. The percentage of cells with misaligned chromosomes and multipolar mitotic-spindles was quantified and plotted with mean values±S.D.
Mice bearing established tumor xenografts using HCT15 or MDA-MB-231 cells were treated orally (PO) or intraperitoneally (IP) twice a day with the indicated doses of Compound 1 or its derivative Compound 16 (b5) for 12 or 15 days, respectively. For comparison, paclitaxel (PTX) was given intravenously to mice bearing established tumour xenografts using HCT15 at dose of 40 mg/kg, 3 times every 4 days.

[3] = system: cleaved PARP and caspase-3 in oncogene-transformed human fibroblast BJ cells; assay: Immunoblot of cleaved PARP and cleaved caspase-3; type: cell-based; settings: 2.5 and 5 μM, 48 h
Description: FIGS. 5B, C provide a representation of an immunoblot analysis to examine the PARP or caspase-3 cleavage (B) and a histogram showing Caspase-3/7 activities, plotted as fold induction compared to DMSO-treated cells (C). BJ normal and transformed cells were treated with Compound 1 (a131) for 48 h. Cells were harvested and total lysates were analysed by detecting cleaved PARP or caspase-3 or caspase-3/7 activities as markers for apoptotic induction. […] Student's t-test was performed to determine the statistical significance (**=p<0.001, ***=p<0.0001, n.s.=no significance).
Whether Compound 1 (a131)-induced cancer cell-lethality was mediated by apoptosis or non-apoptotic programmed cell death was determined. For this purpose, isogenic non-transformed and oncogene-transformed human fibroblast BJ cell lines were cultured in DMEM supplemented with 10% FBS. The cells were treated with Compound 1 (2.5 μM and 5 μM, DMSO). 48 h after treatment, total cell lysates were prepared for immunoblot analysis using antibodies against cleaved PARP and cleaved caspase-3, well-known markers for apoptosis. In addition, a fraction of total cell lysates was also subjected to Caspase-3/7 Glo (Promega) assay to measure the combined activity of caspase 3/7. This was determined using caspase-Glo 3/7 Assay Kit (Promega) and its activity was normalized to a number of viable cells as determined by MTT assay.

[4] = system: non-transformed normal BJ cells; assay: BrdU incorporation and FACS analysis (cell cycle arrest); type: cell-based, human
Description: A: is output from a FACS analysis of isogenic-non-transformed, without (panels a-c) (WT) or with (panels d-f) shRNA-mediated knockdown of p53 (p53KD), and oncogene-transformed BJ cells (panels g-i), each treated with 0, 5 or 2.5 μM Compound 1 (a131) for 24 h. Cells were doubly stained with PI (horizontal axis) and BrdU (vertical axis). The BrdU-positive population in panels a-c are indicated as arrows. B: is a diagrammatic representation of an immunoblot analysis showing isogenic non-transformed (normal) and oncogene-transformed BJ cells (transformed) treated with Compound 1 (a131) at 0, 2.5 or 5 μM for 24 h or 48 h. Cells were harvested and total lysates were analysed by detecting p53 and p21. Antibodies raised against β-actin were used as an internal loading control. C and D are histograms showing the percentage of bromodeoxyuracil (BrdU)-positive non-transformed (normal) BJ cells. C: Cells were treated with Group 1 Compound 1 (a131) at 2.5 and 5 μM, Compound 23 (b36) at 2.5 and 5 μM, and Compound 21 (b35) at 5 μM, and Group 2 Compound 25 (a166) at 2.5 and 5 μM, for 24 h. Cells were doubly stained with propidium iodide (PI) and BrdU, and subjected to FACS analysis. The BrdU-positive population are plotted as bars. D: Cells were treated with Group 1 Compound 1 (a131), Compound 16 (b5), and Compound 17 (b9); Group 2 Compound 13 (b12), Compound 12 (b16) and Compound 25 (a166), and Group 3 Compound 3 (a159) at 5 μM for 48 h. The percentage of cells with BrdU positive population, in comparison with DMSO control vehicle, is shown with mean values±S.D. (n=3).
Isogenic non-transformed and oncogene-transformed BJ cells (cultured as in Biology Example 3) were treated with Compound 1 at final concentrations of 2.5 and 5 μM for 24 h. The treated cells were then treated with 30 μM final concentration of 5-bromo-2′-deoxyuridine (BrdU, SIGMA) for 1 h to detect DNA synthesis as a marker for cell proliferation. Subsequently, the cells were fixed in EtOH at 4° C. overnight and permeabilized with 2N HCl/0.5% Triton X-100 for 30 min. The cells were then treated with 0.1M sodium tetraborate for 2 min and stained with anti-BrdU antibody (Invitrogen, Cat#B35129) for 60 min, followed by a 30 min treatment with 20 μg/mL of propidium iodide (PI) and 10 μg/mL RNaseA.
Furthermore, the abilities of additional five (5) Compounds to arrest cells at the stage of G1/S phase of the cell cycle were evaluated. […] The abilities of these Compounds to arrest cells at the stage of G1/S phase of the cell cycle were then measured by using BrdU incorporation assay and FACS analysis. The percentage of cells with BrdU positive population in comparison with DMSO control vehicle was determined and plotted with mean values±S.D. (n=3).

Row | SMILES | LC3 puncta formation [1] | anti-tumour effect (tumour volume) [2] | levels of cleaved PARP and caspase-3 [3] | BrdU-positive cell population ([4]; 24 h, 2.5 and 5 μM (FIG. 9A, 9C)) | arrest at the G1/S phase of the cell cycle (BrdU incorporation) ([4]; 5 μM, 48 h (FIG. 9D))
1 | N#C/C(=C\c1cccc2cnccc12)c1c[nH]c2ccccc12 [Compound 1, (Z)-2-(1H-indol-3-yl)-3-(isoquinolin-5-yl)acrylonitrile] | increased LC3 puncta formation | showed marked anti-tumour effects | markedly increased the levels of both cleaved PARP and caspase-3 | markedly decreased the number of BrdU-positive non-transformed normal BJ cells | –
2 | N#C/C(=C\c1cccc2ncccc12)c1c[nH]c2ccccc12 [Compound 3, (Z)-2-(1H-indol-3-yl)-3-(quinolin-5-yl)acrylonitrile] | – | – | – | – | failed to do so
3 | CN1CCN(CC(=O)n2cc(/C(C#N)=C/c3cccc4cnccc34)c3ccccc32)CC1 [Compound 16, (Z)-3-(isoquinolin-5-yl)-2-(1-(2-(4-methylpiperazin-1-yl)acetyl)-1H-indol-3-yl)acrylonitrile] | – | showed marked anti-tumour effects | – | – | –
